Tests used:
[1] = molecular target: GDP-bound HRAS wild-type protein (Homo sapiens, UniProt P01112); assay: Binding to HRAS by surface plasmon resonance (SPR), Single Cycle Kinetics; conditions: SPR, GDP-bound HRAS wild-type vs GDP-bound KRAS wild-type
[2] = molecular target: GDP-bound NRAS wild-type protein (Homo sapiens, UniProt P01111); assay: Binding to NRAS by surface plasmon resonance (SPR), Single Cycle Kinetics; conditions: SPR, GDP-bound NRAS wild-type vs GDP-bound KRAS wild-type
Chain of GDP-bound NRAS wild-type protein (P01111 whole entry): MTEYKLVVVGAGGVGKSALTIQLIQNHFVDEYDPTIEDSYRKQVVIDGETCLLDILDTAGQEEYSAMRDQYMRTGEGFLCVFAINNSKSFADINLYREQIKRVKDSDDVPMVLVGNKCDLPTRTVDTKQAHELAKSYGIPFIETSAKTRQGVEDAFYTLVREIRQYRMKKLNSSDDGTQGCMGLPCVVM

Chain of GDP-bound HRAS wild-type protein (P01112 whole entry): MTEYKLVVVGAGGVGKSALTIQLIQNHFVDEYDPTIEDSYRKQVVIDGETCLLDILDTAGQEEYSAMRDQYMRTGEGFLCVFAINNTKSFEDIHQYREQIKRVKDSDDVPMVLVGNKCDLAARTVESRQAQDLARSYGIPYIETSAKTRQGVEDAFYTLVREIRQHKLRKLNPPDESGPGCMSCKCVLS

Structure (SMILES) | HRAS/KRAS (ratio of KD value with respect to HRAS to KD value with respect to KRAS) [1] | NRAS/KRAS (ratio of KD value with respect to NRAS to KD value with respect to KRAS) [2]
CCO[C@@H]1C[C@H]2C(=O)NC3(CC(C)(C)C3)C(=O)N(C)[C@@H](C(CC)CC)C(=O)N(C)[C@H](C(=O)N(C)C)CC(=O)N(C)[C@@H](C(C)C)C(=O)N[C@@H]([C@@H](C)CC)C(=O)N(C)CC(=O)N(C)[C@H]3C/C=C\CCN(C3=O)[C@@H](Cc3ccc(C)cc3)C(=O)N(C)CC(=O)N[C@@H](CCc3ccc(Cl)c(Cl)c3)C(=O)N2C1 [PP2122] | A (a compound having 10 or more and less than 20 is denoted as A) | AA (a compound having 20 or more is denoted as AA)
CCO[C@@H]1C[C@H]2C(=O)NC3(CC(C)(C)C3)C(=O)N(C)[C@@H](C(CC)CC)C(=O)N(C)[C@H](C(=O)N3CCCC3)CC(=O)N(C)[C@@H](COC)C(=O)N[C@@H]([C@@H](C)CC)C(=O)N(C)CC(=O)N(C)[C@H]3C/C=C\CCN(C3=O)[C@@H](Cc3ccc(C(F)(F)F)cc3)C(=O)N(C)CC(=O)N[C@@H](CCc3cc(F)c(C(F)(F)F)c(F)c3)C(=O)N2C1 [PP2123] | A (a compound having 10 or more and less than 20 is denoted as A) | A (a compound having 10 or more and less than 20 is denoted as A)
CCO[C@@H]1C[C@H]2C(=O)NC3(CC(C)(C)C3)C(=O)N(C)[C@@H](C(CC)CC)C(=O)N(C)[C@H](C(=O)N(C)C)CC(=O)N(C)[C@@H](CC3CC3)C(=O)N[C@@H]([C@@H](C)CC)C(=O)N(C)CC(=O)N(C)[C@H]3C/C=C\CCN(C3=O)[C@@H](Cc3ccc(C(F)(F)F)cc3)C(=O)N(C)CC(=O)N[C@@H](CCc3ccc(C(F)(F)F)c(Cl)c3)C(=O)N2C1 [PP2124] | A (a compound having 10 or more and less than 20 is denoted as A) | AA (a compound having 20 or more is denoted as AA)
CCC[C@H]1C(=O)N[C@@H]([C@@H](C)CC)C(=O)N(C)CC(=O)N(C)[C@H]2C/C=C\CCN(C2=O)[C@@H](Cc2ccc(C(F)(F)F)cc2)C(=O)N(C)CC(=O)N[C@@H](CCc2cc(F)c(C(F)(F)F)c(F)c2)C(=O)N2C[C@H](OCC)C[C@H]2C(=O)NC2(CC(C)(C)C2)C(=O)N(C)[C@@H](C(CC)CC)C(=O)N(C)[C@H](C(=O)N(C)C)CC(=O)N1C [PP2125] | A (a compound having 10 or more and less than 20 is denoted as A) | AA (a compound having 20 or more is denoted as AA)
CCO[C@@H]1C[C@H]2C(=O)NC3(CC(C)(C)C3)C(=O)N(C)[C@@H](C(CC)CC)C(=O)N(C)[C@H](C(=O)N(C)C)CC(=O)N(C)[C@@H](COC)C(=O)N[C@@H]([C@@H](C)CC)C(=O)N(C)CC(=O)N(C)[C@H]3C/C=C\CCN(C3=O)[C@@H](Cc3ccc(C(F)(F)F)cc3)C(=O)N(C)CC(=O)N[C@@H](CCc3ccc(C(F)(F)F)c(Cl)c3)C(=O)N2C1 [PP2126] | B (a compound having 3 or more and less than 10 is denoted as B) | A (a compound having 10 or more and less than 20 is denoted as A)
CCO[C@@H]1C[C@H]2C(=O)NC3(CC(C)(C)C3)C(=O)N(C)[C@@H](C(CC)CC)C(=O)N(C)[C@H](C(=O)N(C)C)CC(=O)N(C)[C@@H](CC(C)C)C(=O)N[C@@H]([C@@H](C)CC)C(=O)N(C)CC(=O)N(C)[C@H]3C/C=C\CCN(C3=O)[C@@H](Cc3ccc(C(F)(F)F)cc3)C(=O)N(C)CC(=O)N[C@@H](CCc3cc(F)c(C(F)(F)F)c(F)c3)C(=O)N2C1 [PP2127] | A (a compound having 10 or more and less than 20 is denoted as A) | AA (a compound having 20 or more is denoted as AA)
CCO[C@@H]1C[C@H]2C(=O)NC3(CC(C)(C)C3)C(=O)N(C)[C@@H](C(CC)CC)C(=O)N(C)[C@H](C(=O)N3CCCC3)CC(=O)N(C)[C@@H](COC)C(=O)N[C@@H]([C@@H](C)CC)C(=O)N(C)CC(=O)N(C)[C@H]3C/C=C\CCN(C3=O)[C@@H](Cc3ccc(C(F)(F)F)cc3)C(=O)N(C)CC(=O)N[C@@H](CCc3ccc(C(F)(F)F)c(Cl)c3)C(=O)N2C1 [PP2128] | A (a compound having 10 or more and less than 20 is denoted as A) | AA (a compound having 20 or more is denoted as AA)
CCO[C@@H]1C[C@H]2C(=O)NC3(CC(C)(C)C3)C(=O)N(C)[C@@H](C(CC)CC)C(=O)N(C)[C@H](C(=O)N(C)C)CC(=O)N(C)[C@@H](CC(C)C)C(=O)N[C@@H]([C@@H](C)CC)C(=O)N(C)CC(=O)N(C)[C@H]3C/C=C\CCN(C3=O)[C@@H](Cc3ccc(C(F)(F)F)cc3)C(=O)N(C)CC(=O)N[C@@H](CCc3ccc(C(F)(F)F)c(Cl)c3)C(=O)N2C1 [PP2132] | A (a compound having 10 or more and less than 20 is denoted as A) | AA (a compound having 20 or more is denoted as AA)
CCO[C@@H]1C[C@H]2C(=O)NC3(CC(C)(C)C3)C(=O)N(C)[C@@H](C(CC)CC)C(=O)N(C)[C@H](C(=O)N(C)C)CC(=O)N(C)[C@@H](CC3CCC3)C(=O)N[C@@H]([C@@H](C)CC)C(=O)N(C)CC(=O)N(C)[C@H]3C/C=C\CCN(C3=O)[C@@H](Cc3ccc(C(F)(F)F)cc3)C(=O)N(C)CC(=O)N[C@@H](CCc3cc(F)c(C(F)(F)F)c(F)c3)C(=O)N2C1 [PP2133] | A (a compound having 10 or more and less than 20 is denoted as A) | AA (a compound having 20 or more is denoted as AA)
CCO[C@@H]1C[C@H]2C(=O)NC3(CC(C)(C)C3)C(=O)N(C)[C@@H](C(CC)CC)C(=O)N(C)[C@H](C(=O)N(C)C)CC(=O)N(C)[C@@H](C(C)C)C(=O)N[C@@H]([C@@H](C)CC)C(=O)N(C)CC(=O)N(C)[C@H]3C/C=C\CCN(C3=O)[C@@H](Cc3ccc(C(F)(F)F)cc3)C(=O)N(C)CC(=O)N[C@@H](CCc3cc(F)c(C(F)(F)F)c(F)c3)C(=O)N2C1 [PP2135] | A (a compound having 10 or more and less than 20 is denoted as A) | AA (a compound having 20 or more is denoted as AA)
CCO[C@@H]1C[C@H]2C(=O)NC3(CC(C)(C)C3)C(=O)N(C)[C@@H](C(CC)CC)C(=O)N(C)[C@H](C(=O)N(C)C)CC(=O)N(C)[C@@H](CC3CC3)C(=O)N[C@@H]([C@@H](C)CC)C(=O)N(C)CC(=O)N(C)[C@H]3C/C=C\CCN(C3=O)[C@@H](Cc3ccc(C)cc3)C(=O)N(C)CC(=O)N[C@@H](CCc3cc(F)c(C(F)(F)F)c(F)c3)C(=O)N2C1 [PP2137] | A (a compound having 10 or more and less than 20 is denoted as A) | A (a compound having 10 or more and less than 20 is denoted as A)
CCO[C@@H]1C[C@H]2C(=O)NC3(CC(C)(C)C3)C(=O)N(C)[C@@H](C(CC)CC)C(=O)N(C)[C@H](C(=O)N(C)C)CC(=O)N(C)[C@@H](CC3CCC3)C(=O)N[C@@H]([C@@H](C)CC)C(=O)N(C)CC(=O)N(C)[C@H]3C/C=C\CCN(C3=O)[C@@H](Cc3ccc(C(F)(F)F)cc3)C(=O)N(C)CC(=O)N[C@@H](CCc3ccc(C(F)(F)F)c(Cl)c3)C(=O)N2C1 [PP2138] | A (a compound having 10 or more and less than 20 is denoted as A) | A (a compound having 10 or more and less than 20 is denoted as A)
CCO[C@@H]1C[C@H]2C(=O)NC3(CC(C)(C)C3)C(=O)N(C)[C@@H](C(CC)CC)C(=O)N(C)[C@H](C(=O)N3CCCC3)CC(=O)N(C)[C@@H](COC)C(=O)N[C@@H]([C@@H](C)CC)C(=O)N(C)CC(=O)N(C)[C@H]3C/C=C\CCN(C3=O)[C@@H](Cc3ccc(C)cc3)C(=O)N(C)CC(=O)N[C@@H](CCc3cc(F)c(C(F)(F)F)c(F)c3)C(=O)N2C1 [PP2139] | A (a compound having 10 or more and less than 20 is denoted as A) | AA (a compound having 20 or more is denoted as AA)
CCO[C@@H]1C[C@H]2C(=O)NC3(CC(C)(C)C3)C(=O)N(C)[C@@H](C(CC)CC)C(=O)N(C)[C@H](C(=O)N(C)C)CC(=O)N(C)[C@@H](C(C)C)C(=O)N[C@@H]([C@@H](C)CC)C(=O)N(C)CC(=O)N(C)[C@H]3C/C=C\CCN(C3=O)[C@@H](Cc3ccc(C(F)(F)F)cc3)C(=O)N(C)CC(=O)N[C@@H](CCc3ccc(C(F)(F)F)c(Cl)c3)C(=O)N2C1 [PP2140] | A (a compound having 10 or more and less than 20 is denoted as A) | AA (a compound having 20 or more is denoted as AA)
CCO[C@@H]1C[C@H]2C(=O)NC3(CC(C)(C)C3)C(=O)N(C)[C@@H](C(CC)CC)C(=O)N(C)[C@H](C(=O)N(C)C)CC(=O)N(C)[C@@H](CC(C)C)C(=O)N[C@@H]([C@@H](C)CC)C(=O)N(C)CC(=O)N(C)[C@H]3C/C=C\CCN(C3=O)[C@@H](Cc3ccc(C)cc3)C(=O)N(C)CC(=O)N[C@@H](CCc3cc(F)c(C(F)(F)F)c(F)c3)C(=O)N2C1 [PP2141] | A (a compound having 10 or more and less than 20 is denoted as A) | A (a compound having 10 or more and less than 20 is denoted as A)
CCO[C@@H]1C[C@H]2C(=O)NC3(CC(C)(C)C3)C(=O)N(C)[C@@H](C(CC)CC)C(=O)N(C)[C@H](C(=O)N(C)C)CC(=O)N(C)[C@@H](CC3CC3)C(=O)N[C@@H]([C@@H](C)CC)C(=O)N(C)CC(=O)N(C)[C@H]3C/C=C\CCN(C3=O)[C@@H](Cc3ccc(C)cc3)C(=O)N(C)CC(=O)N[C@@H](CCc3ccc(C(F)(F)F)c(Cl)c3)C(=O)N2C1 [PP2142] | A (a compound having 10 or more and less than 20 is denoted as A) | AA (a compound having 20 or more is denoted as AA)

From patent publication US20250230193A1, “CYCLIC COMPOUND HAVING SELECTIVE KRAS INHIBITORY EFFECT ON HRAS AND NRAS” (CHUGAI SEIYAKU KABUSHIKI KAISHA, priority 2022, published 2025)
